Reference: PMC10610379, “Epidrugs as Promising Tools to Eliminate Plasmodium falciparum Artemisinin-Resistant and Quiescent Parasites” (Pharmaceutics, 2023)
Several values for one entry are separate records, joined by “and”; a condition that tells them apart may be missing. Equal values may be shown once.

Experiments:
[1] = system: Plasmodium falciparum F32-TEM (artemisinin-sensitive twin line); test: Standard chemosensitivity assay (SYBR Green I), F32-TEM; assay type: cell-based; conditions: Plasmodium falciparum; F32-TEM, 48 h incubation, SYBR Green I; mean ± SEM of 3 experiments (* mean of 2); read-out: Antiplasmodial Activity: IC50, F32-TEM
Procedure, shortened: (§1)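 Both parasite lines grown at 2% hematocrit in human red cells with 5% human serum, 37 °C, 5% CO2, then exposed to drug for 48 h in triplicate.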

[2] = system: Plasmodium falciparum F32-ART (artemisinin-resistant strain); test: Standard chemosensitivity assay (SYBR Green I), F32-ART; assay type: cell-based; conditions: for IC50: Plasmodium falciparum, F32-ART, 48 h incubation, SYBR Green I, mean ± SEM of 3 experiments (* mean of 2), read-out: Antiplasmodial Activity: IC50, F32-ART; for Selectivity Index CC50/IC50: ratio cytotoxicity (mammalian cell type of the CC50)/antiplasmodial activity on F32-ART
Procedure, shortened: as §1

[3] = system: 661W; set-up: method as in PMID 29048427; conditions: data from literature ref 44, read-out: Cytotoxicity: CC50 (661W); cited from earlier work
[4] = system: Jurkat; conditions: read-out: Cytotoxicity: CC50 (Jurkat), data from literature ref 41; cited from earlier work
[5] = system: ART-resistant parasites F32-ART at the quiescent stage; test: Quiescent-stage Survival Assay (QSA), 48-h exposure; assay type: cell-based, Plasmodium falciparum
Experimental: The sensitivity of the ART-resistant parasites F32-ART at the quiescent stage towards the different molecules was determined using the QSA (Quiescent-stage Survival Assay), as previously described.
Epidrugs were tested at their IC90 values. In the present study, quiescence was induced using 3 µM of ART or 700 nM of DHA [28]. Thus, D-sorbitol synchronized ring-stage parasites at 3% parasitemia and 2% hematocrit (5 mL of culture per well in 6-well plates) were first exposed to 6 h of ART or DHA to induce quiescence and then to 48 h of the combination “ART or DHA + compound to be tested”. The combinations “ART 6 h/ART 48 h” or “DHA 6 h/DHA 48 h” were used as controls. The compounds were evaluated, in parallel, on proliferating parasites, i.e., without any pre-treatment. After drug exposure, parasite cultures were washed with 40 mL of RPMI-1640 medium and cultured in drug-free conditions supplemented with 10% human serum in new wells. The parasitemia for each condition was then microscopically monitored every 2 days. Culture media were renewed twice a week and 25 µL of fresh red blood cells were added once a week. Obtained data were used to perform Kaplan–Meier survival analyses considering censored data. The outcome was defined as the day when parasite cultures reached the initial parasitemia (3%) and data were considered as censored if no parasite recrudescence was observed during the 30-day experiment timeframe. When relevant, statistical significance between results obtained for the conditions “ART/ART” and “ART/ART + compound to be tested” or “DHA/DHA” and “DHA/DHA + compound to be tested” was determined by a Log Rank (Mantel Cox) test using GraphPad Prism version 7.05. For the best compounds targeting histones, in order to compare western blots data, modified QSAs were carried out by comparing “DHA 6 h/DHA 24 h” versus “DHA 6 h/DHA + compound to be tested 24 h”.

[6] = system: ART-resistant parasites F32-ART at the quiescent stage; test: Modified QSA, 24-h exposure; assay type: cell-based, Plasmodium falciparum; conditions: DHA 700 nM, compound at its IC90, 24-h exposure
Experimental: Epidrugs were tested at their IC90 values. In the present study, quiescence was induced using 3 µM of ART or 700 nM of DHA [28]. Thus, D-sorbitol synchronized ring-stage parasites at 3% parasitemia and 2% hematocrit (5 mL of culture per well in 6-well plates) were first exposed to 6 h of ART or DHA to induce quiescence and then to 48 h of the combination “ART or DHA + compound to be tested”. The combinations “ART 6 h/ART 48 h” or “DHA 6 h/DHA 48 h” were used as controls. The compounds were evaluated, in parallel, on proliferating parasites, i.e., without any pre-treatment. […] The parasitemia for each condition was then microscopically monitored every 2 days. […] When relevant, statistical significance between results obtained for the conditions “ART/ART” and “ART/ART + compound to be tested” or “DHA/DHA” and “DHA/DHA + compound to be tested” was determined by a Log Rank (Mantel Cox) test using GraphPad Prism version 7.05. […]
To collect enough material for immunoblotting, we performed the analysis after a 24-h exposure of DHA-treated parasites to the epidrug and in parallel evaluated the activity of the three epidrugs in a modified QSA, in which quiescent parasites were exposed to the drug to be tested for 24 instead of 48 h, as in our previous experiments (Figure 2).

[7] = system: H4ac4; test: Immunoblotting, histone mark abundance in F32-ART parasites; assay type: cell-based, Plasmodium falciparum; conditions: 90nM
Experimental: (§2) Abundance of methylated and acetylated histone was determined in parasite cultures in different conditions: “not-treated”, “DHA 24 h”, “DHA 6 h/DHA 24 h” and “DHA 6 h/DHA + compound to be tested 24 h”. At the end of the treatments, parasite cultures were washed in RPMI-1640 and then twice in PBS 1× before red blood cell lysis with 0.075% saponin (Sigma-Aldrich) in PBS. Parasite ghosts were washed 3 times in PBS before incubating the ghosts with E1A lysis buffer (50 mM Hepes pH 7.5; 250 mM NaCl; 5 mM EDTA; 0.1% Triton X-100, 1 mM DTT, 0.2 mM PMSF supplemented with complete Mini EDTA-free protease inhibitor cocktail (Roche®, Basel, Switzerland)) for 15 min. Ghosts were then sonicated for 3 × 15s ON/OFF cycles to shear parasite membranes. Debris were pelleted by centrifuging for 15 min at 13,800× g and 4 °C, and supernatants (containing parasitic proteins) were then collected. Protein concentrations were determined using BCA assay (Bio-Rad, Hercules, CA, USA) according to the manufacturer’s instructions. For each sample, 10 µg of proteins were mixed with 4× sample buffer (10 mL 50% Glycerol, 5 mL 0.5 M Tris HCl pH 6.8, 4 mL 20% SDS, 0.02% Bromophenol blue for a total solution volume of 20 mL) and 100 mM DTT and then separated on 15% SDS-PAGE gels in Laemmli running buffer. Gels were then wet-transferred O/N at 20 V onto PVDF membranes. Membranes were blocked in TBST for 1 h at room temperature. Bottom parts were then probed with histone antibodies while upper parts were probed with PFALDOLASE antibody (Abcam, ab38905, Cambridge, UK) at 1:20,000 dilution. The following primary antibodies were used: anti-H3K4me1 (Abcam, ab8895); anti-H3K4me2 (Abcam, ab35356); anti-H3K9me2 (Abcam, ab1220); anti-H3K9me3 (Millipore, 07-442, Burlington, MA, USA); anti-tetra-acetyl H4 (Millipore, 06-866); anti-H4K8Ac (Millipore, 07-328); anti-H4K20me3 (Abcam, ab9053); anti-H3K4me3 (Diagenode) and anti-H3K9Ac (Millipore, 07-352) at 1:10,000. The following secondary antibodies were used: anti-rabbit IgG-Peroxidase produced in goat (Sigma-Aldrich) or anti-mouse IgG-Peroxidase (Sigma-Aldrich); at 1:20,000 dilutions. Blots were developed using ECL Prime Western Blotting (GE Healthcare, Chicago, IL, USA) and read on a Chemidoc touch imaging software. Densitometry analysis was performed by using ImageLab software from Bio-Rad. To determine if variations in histone abundances were statistically significant, immunoblotting experiments were performed on 3 biological replicates and each run was performed twice.

[8] = system: H4K8ac; test: as above; assay type: cell-based, Plasmodium falciparum; conditions: 90nM
Experimental: as §2

[9] = 24 h, F32-ART ring stage proliferating, 3 replicates (Fig 3A)
[10] = DHA 6 h/DHA + apicidin 24 h, F32-ART DHA-treated parasites, 3 replicates (Fig 3E)

SMILES | IC50 [1] | IC50 [2] | Selectivity Index CC50/IC50 [2] | CC50 [3] | CC50 [4] | Delay in parasite recrudescence time (difference between median recrudescence times), ART/ART + compound vs ART/ART ([5]; quiescence induced with ART 3 µM 6 h, then 48 h ART + compound at its IC90) | Delay in recrudescence time, DHA/DHA + compound vs DHA/DHA ([5]; quiescence induced with DHA 700 nM 6 h, then 48 h DHA + compound at its IC90) | Recrudescence in modified QSA, DHA 6 h/DHA + compound 24 h vs DHA 6 h/DHA 24 h [6] | Fold change of H4ac4 abundance, apicidin vs DMSO [7, 9] | Fold change of H4ac4 abundance, apicidin, quiescent stage [7, 10] | Fold change of H4K8ac abundance, apicidin vs DMSO [8, 9] | Fold change of H4K8ac abundance, apicidin, quiescent stage [8, 10]
CN1CCc2c(c3ccccc3n2Cc2ccc(C(=O)NO)cc2)C1 [Tubastatin A] | 8 µM | 7 µM | >1.4 | > 10 µM | – | – | – | – | – | – | – | –
CCC(=O)CCCCC[C@@H]1NC(=O)[C@H]2CCCCN2C(=O)[C@H]([C@@H](C)CC)NC(=O)[C@H](Cc2cn(OC)c3ccccc23)NC1=O [Apicidin] | 0.036 ± 0.005 µM | 0.036 ± 0.009 µM | 280 | – | 10 µM | 8 days | slightly shorter delay | no difference in recrudence time | increase and 1.70 and 1.40 and 1.39 | increase and 2.21 and 2.92 and 2.08 | 0.98 and 1.16 and 0.96 | increase and 1.81 and 2.83 and 2.40
